Source: BindingDB's records for doi:10.1021/jm060662k (Abbott Laboratories, 2006)

Biological target: T1, D(4) dopamine receptor (Homo sapiens, UniProt P21917)
T1 sequence (P21917 whole entry): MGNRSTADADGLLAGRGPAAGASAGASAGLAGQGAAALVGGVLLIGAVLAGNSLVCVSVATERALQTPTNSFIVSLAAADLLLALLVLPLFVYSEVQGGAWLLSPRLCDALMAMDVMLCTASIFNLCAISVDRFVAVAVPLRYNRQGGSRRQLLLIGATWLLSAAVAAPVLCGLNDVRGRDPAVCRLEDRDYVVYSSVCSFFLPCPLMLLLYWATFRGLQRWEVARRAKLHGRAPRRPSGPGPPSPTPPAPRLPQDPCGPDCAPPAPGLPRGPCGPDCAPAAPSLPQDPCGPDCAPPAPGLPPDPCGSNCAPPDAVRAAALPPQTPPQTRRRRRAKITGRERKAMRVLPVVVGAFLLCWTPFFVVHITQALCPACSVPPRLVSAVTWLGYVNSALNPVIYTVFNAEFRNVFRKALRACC
Experiment: Agonist activity at human D4.4 receptor in HEK293 cells coexpressing G-alpha-qo5 by FLIPR

`c1ccc(N2CCN(Cc3nc4ccccc4[nH]3)CC2)nc1` [2-((4-(pyridin-2-yl)piperazin-1-yl)methyl)-1H-benzo[d]imidazole] showed an EC50 of 12 nM.
